Measured values: patent US20120034613A1, “Apparatus and Method for Testing Relationships Between Gene Expression and Physical Appearance of Skin” (NSE Products, Inc., priority 2010, published 2012)

Tested on: EpidermFT™ Skin Model (EFT-400) full thickness skin cultures
Experiment: Affymetrix GeneChip HG U133 Plus 2.0 microarray global gene expression, agent-exposed vs untreated skin cultures
Format: cell-based, human
Conditions: Salicin 0.5% vs Untreated Control, 24 hr treatment

For `OCc1ccccc1O[C@@H]1O[C@H](CO)[C@@H](O)[C@H](O)[C@H]1O` [Salicin, 2-(Hydroxymethyl)phenyl β-D-glucospyranoside], the “Fold change ING1 (209808_x_at)” value was 2.572, the “Fold change IRAK2 (231779_at)” value was 2.734 and the “Fold change IRAK3 (220034_at)” value was 2.411. The “Fold change ITPRIP (225582_at)” value was 2.421, the “Fold change JHDM1D (225142_at)” value was 2.825 and the “Fold change KCNA3 (207237_at)” value was 2.308. For the same compound, the “Fold change KCNE4 (222379_at)” value was 2.686, the “Fold change KCNE4 (1552508_at)” value was 2.802 and the “Fold change KCNJ8 (205303_at)” value was 2.493. For the same compound, the “Fold change KCNJ8 (205304_s_at)” value was 2.387, the “Fold change KLF15 (231015_at)” value was 2.338 and the “Fold change KLHL29 (229310_at)” value was 2.719. For the same compound, the “Fold change LCP1 (208885_at)” value was 2.513, the “Fold change LOC285628 (232504_at)” value was 2.636 and the “Fold change LOC440028 (1562606_a_at)” value was 2.7. The “Fold change LOC729222 /// PPFIBP1 (214375_at)” value was 2.426, the “Fold change LOC100128821 /// ZEB2 (235593_at)” value was 2.365 and the “Fold change LOC100132244 (229438_at)” value was 2.299. For the same compound, the “Fold change LPAR1 (204036_at)” value was 2.391, the “Fold change LPAR1 (204037_at)” value was 2.425 and the “Fold change LPAR1 (204038_s_at)” value was 2.732. For the same compound, the “Fold change LPPR4 (213496_at)” value was 2.406, the “Fold change LRCH2 (227688_at)” value was 2.318 and the “Fold change LRRK2 (229584_at)” value was 2.314. The “Fold change MAGEA4 (214254_at)” value was 2.513, the “Fold change MAP3K4 (216199_s_at)” value was 2.654 and the “Fold change MAP3K5 (203836_s_at)” value was 2.356. The “Fold change MAP9 (220145_at)” value was 2.4529, the “Fold change MASP1 (232224_at)” value was 2.402 and the “Fold change MASP1 (235770_at)” value was 2.324. The “Fold change MESDC1 (223264_at)” value was 2.618, the “Fold change MGST1 (239001_at)” value was 2.428 and the “Fold change MMD (203414_at)” value was 2.313. The “Fold change MTHFD2L (220346_at)” value was 2.597, the “Fold change MYO3B (1552578_a_at)” value was 2.338 and the “Fold change NAMPT (217738_at)” value was 2.668. The “Fold change NEGR1 (1553194_at)” value was 2.339, the “Fold change NEXN (226103_at)” value was 2.323 and the “Fold change NFKB2 (207535_s_at)” value was 2.67. The “Fold change NFKBIZ (223217_s_at)” value was 2.35, the “Fold change NOVA1 (205794_s_at)” value was 2.682 and the “Fold change NR4A1 (202340_x_at)” value was 2.338. The “Fold change NRP2 (228699_at)” value was 2.306, the “Fold change OLAH (222945_x_at)” value was 2.586 and the “Fold change PAPPA (201981_at)” value was 2.727. For the same compound, the “Fold change PAPPA (224940_s_at)” value was 2.664, the “Fold change PAPPA (224941_at)” value was 2.737 and the “Fold change PAPPA (228128_x_at)” value was 2.482. The “Fold change PAPPA (1559400_s_at)” value was 2.415, the “Fold change PCDH7 (210941_at)” value was 2.333 and the “Fold change PCSK1 (205825_at)” value was 2.59. For the same compound, the “Fold change PDE4D (211840_s_at)” value was 2.429, the “Fold change PEG10 (212092_at)” value was 2.813 and the “Fold change PF4 (206390_x_at)” value was 2.652. The “Fold change PGM2L1 (229256_at)” value was 2.478, the “Fold change PHLDA1 (217996_at)” value was 2.515 and the “Fold change PHTF1 (215285_s_at)” value was 2.498. The “Fold change PI15 (229947_at)” value was 2.619, the “Fold change PID1 (219093_at)” value was 2.447 and the “Fold change PID1 (237867_s_at)” value was 2.743. For the same compound, the “Fold change PISD (202392_s_at)” value was 2.402, the “Fold change PITPNC1 (238649_at)” value was 2.621 and the “Fold change PLAUR (211924_s_at)” value was 2.357. The “Fold change PLEKHA3 (223370_at)” value was 2.302, the “Fold change PTGER4 (204897_at)” value was 2.525 and the “Fold change PTGES (207388_s_at)” value was 2.768. For the same compound, the “Fold change PTGES (210367_s_at)” value was 2.519, the “Fold change PTGS1 (205128_x_at)” value was 2.327 and the “Fold change PTGS1 (215813_s_at)” value was 2.306. The “Fold change PTHLH (206300_s_at)” value was 2.505, the “Fold change PTHLH (211756_at)” value was 2.599 and the “Fold change PTPRG (204944_at)” value was 2.299. The “Fold change QKI (228540_at)” value was 2.426, the “Fold change RAB3B (205924_at)” value was 2.634 and the “Fold change RAB3B (227123_at)” value was 2.514. The “Fold change RAB23 (220955_x_at)” value was 2.644, the “Fold change RABGGTB (209180_at)” value was 2.305 and the “Fold change RABGGTB (213704_at)” value was 2.423. For the same compound, the “Fold change RAI14 (202052_s_at)” value was 2.503, the “Fold change RASSF8 (235996_at)” value was 2.788 and the “Fold change RGS3 (203823_at)” value was 2.462. For the same compound, the “Fold change RGS5 (209070_s_at)” value was 2.7, the “Fold change RGS12 (242079_at)” value was 2.358 and the “Fold change RHOQ (212122_at)” value was 2.398. For the same compound, the “Fold change SEC24A (212902_at)” value was 2.298, the “Fold change SEMA3A (206805_at)” value was 2.505 and the “Fold change SETDB2 (235339_at)” value was 2.377. For the same compound, the “Fold change SGK1 (201739_at)” value was 2.419, the “Fold change SH3RF3 (228461_at)” value was 2.389 and the “Fold change SHOX (207570_at)” value was 2.312. The “Fold change SLC6A15 (232263_at)” value was 2.365, the “Fold change SLC11A2 (237106_at)” value was 2.533 and the “Fold change SLC20A1 (230494_at)” value was 2.526. For the same compound, the “Fold change SLC43A3 (210692_s_at)” value was 2.457, the “Fold change SLFN11 (226743_at)” value was 2.451 and the “Fold change SLIT2 (209897_s_at)” value was 2.499. For the same compound, the “Fold change SNHG12 (223774_at)” value was 2.339, the “Fold change SOCS2 (203373_at)” value was 2.46 and the “Fold change SPON1 (209437_s_at)” value was 2.36. The “Fold change SPON1 (213993_at)” value was 2.499, the “Fold change SQSTM1 (213112_s_at)” value was 2.447 and the “Fold change ST3GAL1 (208322_s_at)” value was 2.644. The “Fold change ST3GAL1 (225033_at)” value was 2.64, the “Fold change STK17B (205214_at)” value was 2.309 and the “Fold change SULF1 (212344_at)” value was 2.665. The “Fold change TAF1A (206613_s_at)” value was 2.359, the “Fold change TAGLN (205547_s_at)” value was 2.426 and the “Fold change TBC1D1 (212350_at)” value was 2.386. The “Fold change TBC1D1 (227945_at)” value was 2.566, the “Fold change TGM2 (201042_at)” value was 2.351 and the “Fold change THBS1 (201108_s_at)” value was 2.756. The “Fold change THBS1 (239336_at)” value was 2.417, the “Fold change THRAP3 (242163_at)” value was 2.62 and the “Fold change TMEM38B (222735_at)” value was 2.489.
